Results: patent publication US12371454B2, “Cyclic peptide compound having Kras inhibitory action” (priority 2019, dated 2025)
pIC50: −log10 of the molar value. Positions of bridges follow the written chain, without caps; N, C: chain ends. Non-standard residues stand in square brackets, D forms with d. Residues, ends and D or L forms follow the SMILES beside them. *: point of attachment. hPhe(3,5-F2-4-CF3) = N[C@@H](CCc1cc(F)c(C(F)(F)F)c(F)c1)C(=O)O; hPhe(3-Cl-4-CF3) = N[C@@H](CCc1ccc(C(F)(F)F)c(Cl)c1)C(=O)O; 3Oxa8azabicyclo(3.2.1)octane = C1CC2COCC1N2*; NMePhe(4-Me) = CN[C@@H](Cc1ccc(C)cc1)C(=O)O; NMeY = CN[C@@H](Cc1ccc(O)cc1)C(=O)O; NMeCha = CN[C@@H](CC1CCCCC1)C(=O)O; NMeChg = CN[C@H](C(=O)O)C1CCCCC1; Gly(cBu) = N[C@H](C(=O)O)C1CCC1; NMeD = CN[C@@H](CC(=O)O)C(=O)O; NMeL = CN[C@@H](CC(C)C)C(=O)O; NPrAla = CCCN[C@@H](C)C(=O)O; NMeNva = CCC[C@H](NC)C(=O)O; NMeV = CN[C@H](C(=O)O)C(C)C; NMeAbu = CC[C@H](NC)C(=O)O; NMeS = CN[C@@H](CO)C(=O)O; NMeA = CN[C@@H](C)C(=O)O; Piperidide = C1CCN(*)CC1; Pyrrolidide = C1CCN(*)C1; Ac5c = NC1(C(=O)O)CCCC1; Aze = O=C(O)[C@@H]1CCN1; Cyclopropyl = C1CC1*; NEtG = CCNCC(=O)O; CF3 = FC(F)(F)*; Sar = CNCC(=O)O

Columns and labels:
[1] = biological target: T1, Kras and SOS1 (biotin-tagged human Kras loaded with GDP, His-tagged human SOS1) (Homo sapiens, UniProt P01116, G12D); assay: Protein-protein interaction inhibition between Kras and SOS1 (KrasGl2D-SOS PPI) using AlphaScreen; type: binding; conditions: AlphaScreen; biotin-tagged human Kras loaded with GDP, His-tagged human SOS1; read-out: KRAS G12D-SOS PPI IC50
T1 construct: made in house; host or cells: E. coli (stated for Kras only)
T1 sequence (P01116 1-188 isoform P01116-2 G12D): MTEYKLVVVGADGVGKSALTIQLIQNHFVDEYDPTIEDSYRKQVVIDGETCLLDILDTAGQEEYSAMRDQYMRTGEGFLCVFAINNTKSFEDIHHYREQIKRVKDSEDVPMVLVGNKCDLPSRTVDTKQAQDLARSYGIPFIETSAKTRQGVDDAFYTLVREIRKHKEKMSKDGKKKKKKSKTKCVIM
How it was run: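 Donor beads (nickel) hold His-SOS1; acceptor beads (streptavidin) hold biotin-Kras bound to GDP. Signal measured at 520-620 nm following 680 nm excitation.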

[2] = tested on: Human pancreatic cancer cell line AsPC-1; assay: Measurement of AsPC-1 cell growth inhibition (AsPC-1 CGI); type: cell-based; conditions: 96 h
How it was run: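 AsPC-1 cells in 15% FBS RPMI-1640 were exposed to test compound for 96 hours at 37° C, with CellTiter-Glo as endpoint.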

Structure (SMILES)	pIC50 [1]	pIC50 [2]
CCC[C@H]1C(=O)N[C@@H]([C@@H](C)CC)C(=O)N(C)CC(=O)N(C)CC(=O)N(C)[C@@H](CC2CCCCC2)C(=O)N(C)CC(=O)N[C@@H](CCc2cc(F)c(C(F)(F)F)c(F)c2)C(=O)N2CCC[C@H]2C(=O)NC2(CCCC2)C(=O)N(C)[C@@H](C2CCCCC2)C(=O)N(C)[C@H](C(=O)N2CCCC2)CC(=O)N1C [Compound 1253] ([NMeNva]I[Sar][Sar][NMeCha][Sar][hPhe(3,5-F2-4-CF3)]P[Ac5c][NMeChg][NMeD]-Pyrrolidide; lactam N-11)	9.09	7.30 to 7.70
CC[C@H](C)[C@@H]1NC(=O)[C@H](CC(C)C)N(C)C(=O)C[C@@H](C(=O)N2CCCCC2)N(C)C(=O)[C@H](C2CCCCC2)N(C)C(=O)C2(CCCC2)NC(=O)[C@@H]2CCCN2C(=O)[C@H](CCc2ccc(C(F)(F)F)c(Cl)c2)NC(=O)CN(C)C(=O)[C@H](Cc2ccc(C)cc2)N(C)C(=O)CN(C)C(=O)CN(C)C1=O [Compound 1804] ([NMeL]I[Sar][Sar][NMePhe(4-Me)][Sar][hPhe(3-Cl-4-CF3)]P[Ac5c][NMeChg][NMeD]-Piperidide; lactam N-11)	9.29	7.00 to 7.30
CC(C)C[C@H]1C(=O)N[C@@H](C2CCC2)C(=O)N(C)CC(=O)N(C)CC(=O)N(C)[C@@H](CC2CCCCC2)C(=O)N(C)CC(=O)N[C@@H](CCc2ccc(C(F)(F)F)c(Cl)c2)C(=O)N2CCC[C@H]2C(=O)NC2(CCCC2)C(=O)N(C)[C@@H](C(C)C)C(=O)N(C)[C@H](C(=O)N2CCCCC2)CC(=O)N1C [Compound 221] ([NMeL][Gly(cBu)][Sar][Sar][NMeCha][Sar][hPhe(3-Cl-4-CF3)]P[Ac5c][NMeV][NMeD]-Piperidide; lactam N-11)	8.55	6.30 to 7.00
CC[C@H](C)[C@@H]1NC(=O)[C@H](CC(C)C)N(C)C(=O)C[C@@H](C(=O)N2CCCCC2)N(C)C(=O)[C@H](C(C)C)N(C)C(=O)C2(CCCC2)NC(=O)[C@@H]2CCCN2C(=O)[C@H](CCc2ccc(C(F)(F)F)c(Cl)c2)NC(=O)CN(C)C(=O)[C@H](Cc2ccc(OC(F)(F)F)cc2)N(C)C(=O)CN(C)C(=O)CN(C)C1=O [Compound 1630] ([NMeL]I[Sar][Sar][NMeY](CF3)[Sar][hPhe(3-Cl-4-CF3)]P[Ac5c][NMeV][NMeD]-Piperidide; lactam N-11)	8.21	6.30 to 7.00
CC[C@H](C)[C@@H]1NC(=O)[C@H](CC(C)C)N(C)C(=O)C[C@@H](C(=O)N2CCCCC2)N(C)C(=O)[C@H](C(C)C)N(C)C(=O)C2(CCCC2)NC(=O)[C@@H]2CCCN2C(=O)[C@H](CCc2ccc(C(F)(F)F)c(Cl)c2)NC(=O)CN(C)C(=O)[C@H](COC2CC2)N(C)C(=O)[C@@H]2CCN2C(=O)[C@H](C)N(C)C1=O [Compound 1738] ([NMeL]I[NMeA][Aze][NMeS](Cyclopropyl)[Sar][hPhe(3-Cl-4-CF3)]P[Ac5c][NMeV][NMeD]-Piperidide; lactam N-11)	7.96	6.30 to 7.00
CCCN1C(=O)C[C@@H](C(=O)N2CCCCC2)N(C)C(=O)[C@H](C(C)C)N(C)C(=O)C2(CCCC2)NC(=O)[C@@H]2CCCN2C(=O)[C@H](CCc2ccc(C(F)(F)F)c(Cl)c2)NC(=O)CN(C)C(=O)[C@H](CC2CCCCC2)N(C)C(=O)CN(C)C(=O)CN(C)C(=O)[C@H]([C@@H](C)CC)NC(=O)[C@@H]1C [Compound 131] ([NPrAla]I[Sar][Sar][NMeCha][Sar][hPhe(3-Cl-4-CF3)]P[Ac5c][NMeV][NMeD]-Piperidide; lactam N-11)	8.48	6.30 to 7.00
CC[C@H](C)[C@@H]1NC(=O)[C@H](CC)N(C)C(=O)C[C@@H](C(=O)N2C3CCC2COC3)N(C)C(=O)[C@H](C2CCCCC2)N(C)C(=O)C2(CCCC2)NC(=O)[C@@H]2CCCN2C(=O)[C@H](CCc2ccc(C(F)(F)F)c(Cl)c2)NC(=O)CN(C)C(=O)[C@H](CC2CCCCC2)N(C)C(=O)CN(C)C(=O)CN(C)C1=O [Compound 1901] ([NMeAbu]I[Sar][Sar][NMeCha][Sar][hPhe(3-Cl-4-CF3)]P[Ac5c][NMeChg][NMeD]-{3Oxa8azabicyclo(3.2.1)octane}; lactam N-11)	9.25	7.00 to 7.30
CC[C@H](C)[C@@H]1NC(=O)[C@H](CC(C)C)N(C)C(=O)C[C@@H](C(=O)N2CCCCC2)N(C)C(=O)[C@H](C2CCCCC2)N(C)C(=O)C2(CCCC2)NC(=O)[C@@H]2CCCN2C(=O)[C@H](CCc2ccc(C(F)(F)F)c(Cl)c2)NC(=O)CN(C)C(=O)[C@H](CC2CCCCC2)N(C)C(=O)CN(C)C(=O)CN(CC)C1=O [Compound 1255] ([NMeL]I[NEtG][Sar][NMeCha][Sar][hPhe(3-Cl-4-CF3)]P[Ac5c][NMeChg][NMeD]-Piperidide; lactam N-11)	8.85	6.30 to 7.00
CC[C@H](C)[C@@H]1NC(=O)[C@H](C(C)C)N(C)C(=O)C[C@@H](C(=O)N2CCCCC2)N(C)C(=O)[C@H](C2CCCCC2)N(C)C(=O)C2(CCCC2)NC(=O)[C@@H]2CCCN2C(=O)[C@H](CCc2ccc(C(F)(F)F)c(Cl)c2)NC(=O)CN(C)C(=O)[C@H](CC2CCCCC2)N(C)C(=O)CN(C)C(=O)CN(C)C1=O [Compound 1807] ([NMeV]I[Sar][Sar][NMeCha][Sar][hPhe(3-Cl-4-CF3)]P[Ac5c][NMeChg][NMeD]-Piperidide; lactam N-11)	9.05	7.00 to 7.30
